Assay results: ChEMBL document CHEMBL1201862, “PubChem BioAssay data set” (2004)
The source made the active and inactive calls.

Legend:
[1] = molecular target: COUP transcription factor 2 (Homo sapiens, UniProt P24468); assay: Luminescence-based cell-based high throughput dose response assay to identify inhibitors of COUP-TFII (NR2F2).; assay type: functional;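 also: HEK293 cells transiently cotransfected with COUP-TFII expression vector and reporter; luciferase reporter luminescence driven by COUP-TFII from the pX2-168 reporter plasmid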
INS1 = assay: INS-1E survival protection against cytokine death – cell-based, luminescence, retest, dose response (AID 449756); assay type: functional; conditions: Rattus norvegicus;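 also: cell death triggered by IL-1 beta plus TNF-alpha plus IFN-gamma mixture; protective hits raise ATP signal compared with cytokine alone wells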
[2] = reduction of Shn3 3'UTR-driven luciferase in osteoblasts – cell-based, Clone20 osteoblasts, firefly luciferase, cherry-picked, dose response (AID 624132); assay type: functional;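 also: firefly luciferase luminescence from reporter carrying the Shn3 3'UTR in osteoblasts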
[3] = decrease of insulin promoter-GFP reporter – imaging, high-content screening, mouse beta cells (AID 1628); assay type: functional; conditions: MIN6
[4] = Shn3 3'UTR reporter signal decrease – cell-based, Clone20 osteoblasts, firefly luciferase, cherry-pick, set 2, Schnurri-3 inhibitor project, dose response (AID 720490); assay type: functional;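 also: actives lower the luminescence signal as inhibitors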
[5] = HEK-293T viability loss, compound-treated – cell-based, uHTS hits, cytotoxicity control for B/T-cell NF-kB inhibitor project, dose response (AID 489019); assay type: functional;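 also: IC50 reflects cytotoxicity as loss of cell viability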
[6] = MIN6 cell viability loss – mouse insulinoma, cytotoxicity control, dose response (AID 2122); assay type: functional;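 also: confirmatory high-throughput counterscreen run to flag cytotoxic compounds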
[7] = loss of viability in HepG2 cells – cell-based, CellTiter-Glo, cherry-picked, cytotoxicity control for Shn3 inhibitor project, dose response (AID 624134); assay type: functional
Jurkat = assay: blockers of NF-kB activation in T cells – Jurkat, luciferase reporter, luminescence, B- and T-cell, dose response (AID 489004); assay type: functional, cell-based; conditions: Homo sapiens;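 also: NF-kB luciferase reporter Jurkat cells stimulated with PMA plus ionomycin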
[8] = non-specific 3'UTR reporter inhibition in Clone20-Shn3RL – cell-based, Renilla luciferase, cherry-picked, counter-screen for Shn3 inhibitor project, dose response (AID 624133); assay type: functional
[9] = NIH-3T3 fibroblast cytotoxicity, dose response, cytotoxicity control, cell-based, fluorescence, Alamar Blue, secondary assay (AID 2327); assay type: functional;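 also: NIH-3T3 mouse fibroblasts cultured with fluconazole at 8 µg/mL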
[10] = fluconazole-exposed Candida albicans growth modulators – fluorescence, retest, confirmation (AID 2467); assay type: functional, cell-based
[11] = molecular target: T1, Serine/threonine-protein phosphatase (Candida dubliniensis (strain CD36 / CBS 7987 / NCPF 3949 / NRRLY-17841) (Yeast), UniProt B9W6M3); assay: blockers of CaCl2-induced CDRE-lacZ signaling – S. cerevisiae, luminescence, secondary, dose response (AID 2388); assay type: functional, cell-based;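 also: yeast reporter cells carrying a calcineurin-responsive lacZ construct stimulated with calcium chloride; luminescent beta-galactosidase reporter signal in whole cells rather than isolated phosphatase activity; potency for inhibition where a drop in reporter signal means calcineurin blockade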
T1 sequence (B9W6M3 whole entry): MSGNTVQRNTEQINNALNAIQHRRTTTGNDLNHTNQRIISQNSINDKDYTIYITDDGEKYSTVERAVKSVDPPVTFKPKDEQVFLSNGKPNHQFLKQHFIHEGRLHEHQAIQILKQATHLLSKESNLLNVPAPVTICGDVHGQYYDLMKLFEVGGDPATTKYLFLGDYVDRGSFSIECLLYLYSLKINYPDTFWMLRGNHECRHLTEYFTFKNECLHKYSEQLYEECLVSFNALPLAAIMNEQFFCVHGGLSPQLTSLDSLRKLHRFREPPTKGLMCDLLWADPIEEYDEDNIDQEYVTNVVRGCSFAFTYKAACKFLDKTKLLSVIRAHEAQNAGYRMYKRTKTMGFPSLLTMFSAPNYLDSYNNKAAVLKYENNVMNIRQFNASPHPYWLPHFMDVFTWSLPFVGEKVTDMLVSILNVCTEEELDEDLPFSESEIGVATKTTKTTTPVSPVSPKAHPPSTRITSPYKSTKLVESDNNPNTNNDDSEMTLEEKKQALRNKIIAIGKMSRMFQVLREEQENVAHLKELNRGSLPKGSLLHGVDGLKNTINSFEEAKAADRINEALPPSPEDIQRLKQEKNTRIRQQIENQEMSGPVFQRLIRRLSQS

[12] = molecular target: ATP-dependent molecular chaperone HSP82 (Candida albicans (strain WO-1) (Yeast), UniProt C4YTQ8); assay: steroid-induced GRE reporter decrease in yeast – S. cerevisiae, luminescence, Hsp90 inhibitor project, dose response (AID 2400); assay type: functional, cell-based;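 also: beta-galactosidase luminescence from glucocorticoid response element reporter as proxy for Hsp90 function; inhibitor potency where signal loss means Hsp90 inhibition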
[13] = molecular target: T1, Serine/threonine-protein phosphatase; assay: Fluorescence Cell-Based Secondary Assay to Identify Inhibitors of Calcineurin. [Related pubchem assays (depositor defined):AID1979, AID2007]; assay type: functional
[14] = Luminescence Cell-Based Dose Response Follow up to Identify Inhibitors of Platelet Dense Granule Release. [Related pubchem assays (depositor defined):AID1663, AID1678, AID1889, AID2519]; assay type: functional
[15] = blockers of SFLLRN-triggered platelet ATP secretion – cell-based, human platelets, luminescence, dry powder, dose response (AID 493100); assay type: functional
[16] = SFLLRN-induced P-Selectin Platelet Surface Expression Measured in Cell-Based System Using Flow Cytometry - 2016-03_Inhibitor_Dose_DryPowder_Activity_Set3. [Related pubchem assays (depositor defined):AID1678]; assay type: functional
[17] = blockers of HIV-1 ZM109 envelope-driven cell-cell fusion – HeLa effector, CEM target cells, luciferase, cherry-pick, dose response (AID 652058); assay type: functional, cell-based;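 also: luciferase signal from HIV-1 Env mediated cell-cell fusion of effector and target cells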
[18] = blockers of HIV-1 envelope-mediated cell-cell fusion – cherry-pick, dose response (AID 652057); assay type: functional, cell-based
HEK293 [19] = assay: cells; conditions: Homo sapiens
[20] = off-target signal loss in HeLa-CEM21 co-culture – HeLa F-luc CTL cells, cherry-picked, counter-screen for HIV-1 Env fusion inhibitor project, dose response (AID 652040); assay type: functional, cell-based;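 also: potency for signal decrease marking cytotoxic or nonspecific inhibition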
HEK293 [21] = assay: cells; conditions: Homo sapiens; remark: listed apart in the source
[22] = HIV-1 AD8 envelope cell-cell fusion blockers – cherry-pick, dose response (AID 652062); assay type: functional, cell-based;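 also: luciferase signal from cell-cell fusion driven by HIV-1 clade B AD8 Env; potency is for inhibitors of fusion seen as a drop in luminescence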

Chain of ATP-dependent molecular chaperone HSP82 (C4YTQ8 whole entry): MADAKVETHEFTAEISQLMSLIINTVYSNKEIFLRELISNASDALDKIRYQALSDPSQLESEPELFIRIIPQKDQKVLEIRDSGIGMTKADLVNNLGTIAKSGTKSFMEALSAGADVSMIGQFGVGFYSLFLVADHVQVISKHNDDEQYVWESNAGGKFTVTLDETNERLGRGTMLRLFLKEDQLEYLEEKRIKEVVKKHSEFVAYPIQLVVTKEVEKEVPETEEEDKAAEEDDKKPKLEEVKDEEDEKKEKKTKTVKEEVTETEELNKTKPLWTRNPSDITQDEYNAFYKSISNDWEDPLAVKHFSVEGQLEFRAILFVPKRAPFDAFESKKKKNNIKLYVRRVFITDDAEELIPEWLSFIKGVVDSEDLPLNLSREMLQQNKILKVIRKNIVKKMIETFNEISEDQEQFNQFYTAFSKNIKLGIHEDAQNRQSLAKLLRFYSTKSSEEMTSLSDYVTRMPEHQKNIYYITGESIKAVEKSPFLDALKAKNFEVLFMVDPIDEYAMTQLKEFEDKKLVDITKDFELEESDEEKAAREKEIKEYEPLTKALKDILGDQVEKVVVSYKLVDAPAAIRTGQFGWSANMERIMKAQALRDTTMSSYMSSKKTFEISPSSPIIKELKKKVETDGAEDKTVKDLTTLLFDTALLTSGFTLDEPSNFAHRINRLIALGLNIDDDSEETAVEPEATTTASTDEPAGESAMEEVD
Chain of COUP transcription factor 2 (P24468 whole entry): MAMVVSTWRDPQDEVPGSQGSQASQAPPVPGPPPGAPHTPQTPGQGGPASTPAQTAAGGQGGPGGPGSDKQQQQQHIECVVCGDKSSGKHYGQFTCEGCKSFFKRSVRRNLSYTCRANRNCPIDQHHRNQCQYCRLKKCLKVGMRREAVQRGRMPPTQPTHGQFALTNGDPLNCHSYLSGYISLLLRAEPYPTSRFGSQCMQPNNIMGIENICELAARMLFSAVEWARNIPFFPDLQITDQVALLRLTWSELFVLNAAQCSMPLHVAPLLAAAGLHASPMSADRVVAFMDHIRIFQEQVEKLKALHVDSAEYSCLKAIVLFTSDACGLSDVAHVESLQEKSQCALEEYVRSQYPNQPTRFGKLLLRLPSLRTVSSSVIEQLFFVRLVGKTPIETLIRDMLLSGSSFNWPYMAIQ

SMILES: Cn1nc(CC(=O)Nc2ccc3c(c2)OCCO3)c2ccccc2c1=O
- IC50 [1]: 6.56 µM (active)
- AC50 (INS1): 2.77 µM (active)
- AC50 [2]: 0.899 µM (active)
- IC50 [3]: 0.797 µM (active)
- AC50 [4]: 1.36 µM (active)
- IC50 [5]: > 80 µM (inactive)
- IC50 [6]: 0.552 µM (active)
- AC50 [7]: 55.8 µM (active)
- IC50 (Jurkat): > 80 µM (inactive)
- AC50 [8]: 3.62 µM (active)

SMILES: COc1ccc(-n2nc(C(=O)NCC(=O)N3CCN(c4ccccc4)CC3)c3ccccc3c2=O)c(OC)c1
- EC50 [9]: > 160 µM (inactive)
- EC50 [10]: 0.819 µM (active)
- EC50 [11]: > 180 µM (inactive)
- EC50 [12]: > 160 µM (inactive)
- EC50 [13]: > 285 µM (inactive)

SMILES: COc1ccc(C(=O)Nc2cccc(NC(C)=O)c2)cc1
- EC50 [14]: 3.96 µM (active)
- AC50 [15]: 12.8 µM (active)
- AC50 [16]: 3.53 µM (active)

SMILES: COc1ccc(Cl)cc1CC1(C)C(=O)Nc2ccc(S(=O)(=O)NC3CCCCC3)cc21 (centres undefined)
- AC50 [17]: 0.768 µM (active)
- AC50 [18]: 0.749 µM (active)
- EC50 (HEK293 [19]): > 59.6 µM (inactive)
- AC50 [20]: 1.07 µM (active)
- EC50 (HEK293 [21]): > 59.6 µM (inactive)
- AC50 [22]: 3.04 µM (active)
